From patent US10519138B2, “Modulators of SOCE, compositions, and uses thereof” (Università degli Studi del Piemonte Orientale “Amedeo …, priority 2016, dated 2019)
“And” between values parts separate entries of the source, which are not always exact repeats. Equal values may be shown once.

Assays:
[1] = test system: Store Operated Calcium Entry (SOCE) in Jurkat cells; experiment: Fura-2 single-cell Ca2+ measurement of tBHQ-induced SOCE in Jurkat cells; format: cell-based, human; conditions: for inhibition at 10 µM: Homo sapiens, SOCE modulation based on tBHQ-induced calcium influx
Experimental: Immortalized line of human T lymphocyte Jurkat cells were achieved from ATCC (ATCC® TIB-152™, Rockville, Md., USA) and were cultured in Roswell Park Memorial Institute Medium (RPMI 1640; Sigma-Aldrich, Italy), supplemented with 10% heat-inactivated FBS (Gibco, Italy), 1-glutamine 50 mg/mL (Sigma-Aldrich, Italy), penicillin 10 U/mL and streptomycin […] (Sigma-Aldrich, Italy) at 37° C., under a 5% CO2 humidified atmosphere. For experiments, the cells were plated onto glass coverslips at concentrations of 6×10^4 per mL (24 mm diameter coverslips in 6 well plates).
Compounds were also tested on Jurkat cells in single-cell analysis using Fura-2 AM on cover-slips. Jurkat cells were loaded with 5 μM Fura-2 AM in presence of 0.02% of Pluronic-127 (both from Life Technologies, Italy) and 1 μM sulfinpyrazone in Krebs-Ringer buffer (KRB, 135 mM NaCl, 5 mM KCl, 0.4 mM KH2PO4, 1 mM MgSO4, 5.5 mM glucose, 20 mM HEPES, pH 7.4) containing 2 mM CaCl2 (30 min, room temperature). Afterwards, cells were washed and incubated with KRB for other 30 min to allow de-esterification of Fura-2AM. To measure store operated calcium entry, changes in cytosolic Ca^2+ were monitored upon depletion of the intracellular Ca^2+ stores. Experiments were carried out prior to and during exposure of the cells to the Ca^2+-free solution. In the absence of Ca^2+, the intracellular Ca^2+ stores were depleted by inhibition of the vesicular Ca^2+ pump by 2,5-t-butylhydroquinone (tBHQ, 50 μM; Sigma-Aldrich, Italy). Re-addition of 2 mM Ca^2+ allowed assessing the SOCE. During the experiments the cover-slips were mounted into acquisition chamber and placed on the stage of a Leica DMI6000 epi-fluorescent microscope equipped with S Fluor ×40/1.3 objective. Fura-2 was excited by alternate 340 and 380 nm using a Polychrome IV mono-chromator (Till Photon-ics, Germany) and the probe emission light was filtered through 520/20 band-pass filter and collected by a cooled CCD camera (Hamamatsu, Japan). The fluorescence signals were acquired and processed using MetaFluor software (Molecular Device, Sun-Nyvale, C A, USA). To quantify the differences in the amplitudes of Ca^2+ transients the ratio values were normalized using the formula ΔF/F0 (referred to as normalized Fura-2 ratio, “Norm. Fura ratio”). The percentage of SOCE modulation for each of 15 compounds was determined based on value of tBHQ-induced calcium influx into Jurkat cells. Data were analysed using Microsoft Excel and GraphPad Prism.

[2] = test system: Store Operated Calcium Entry (SOCE) in BV-2 cells; experiment: Fluo-4 fluorimetric assay of tBHQ-induced store operated calcium entry in BV-2 cells; format: cell-based, mouse; conditions: for inhibition at 10 µM: Mus musculus, SOCE inhibition based on tBHQ-induced calcium influx; for % Activation (10 μM): potentiation of calcium entry
Experimental: (A) BV-2 cells were plated in poly-d-lysine coated 24-well plate and incubated overnight. After 24 hours, cells were loaded with 2 μM Fluo-4 and placed in an extracellular solution containing 0 mM Ca^2+. Stores were depleted with 50 μM tBHQ and calcium influx was stimulated by the addition of 2 mM Ca^2+ alone (Ctrl), or in conbination with: compound with no activity (NM-3A), and compounds that positively (4-(1-(4-(3,5-bis(trifluoromethyl)-1H-pyrazol-1-yl)phenyl)-1H-1,2,3-triazol-4-yl)benzoic acid) and negatively (3-(1-(4-(4-(ethoxycarbonyl)-5-(trifluoromethyl)-1H-pyrazol-1-yl)phenyl)-1H-1,2,3-triazol-4-yl)benzoic acid) regulate SOCE. Calcium responses are expressed as changes in fluorescence intensity before and after the addition of selected modulators. (B) BV-2 cells were assayed for a calcium response to different concentrations of 3-(1-(4-(4-(ethoxycarbonyl)-5-(trifluoromethyl)-1H-pyrazol-1-yl)phenyl)-1H-1,2,3-triazol-4-yl)benzoic acid and 4-(1-(4-(3,5-bis(trifluoromethyl)-1H-pyrazol-1-yl)phenyl)-1H-1,2,3-triazol-4-yl)benzoic acid (0.1-0.3-1-3-10-30-100 μM) using Fluo-4 fluorimetric assay. Concentration-response curves represent the AUC % of both compounds as compared to positive control.
Immortalized primary mouse microglial BV-2 cells were obtained from ATCC (ATCC® CRL-2540™, Rockville, Md., USA) and were cultured in Dulbecco's Modified Eagle's Medium (DMEM; Sigma-Aldrich, Italy), supplemented with 10% heat-inactivated FBS (Gibco, Italy), 1-glutamine 50 mg/mL (Sigma-Aldrich, Italy), penicillin 10 U/mL and streptomycin […] (Sigma-Aldrich, Italy) at 37° C., under a 5% CO2 humidified atmosphere. For experiments, the cells were plated 2×10^4 per ml in 24 well plates) or onto glass coverslips at concentrations of 4×10^4 per mL (24 mm diame-ter coverslips in 6 well plates).
BV-2 cells were loaded with 5 μM Fluo-4 AM in presence of 0.02% of Pluronic-127 (both from Life Technologies, Italy) and 10 μM sulfinpyrazone in Krebs-Ringer buffer (KRB, 135 mM NaCl, 5 mM KCl, 0.4 mM KH2PO4, 1 mM MgSO4, 5.5 mM glucose, 20 mM HEPES, pH 7.4) containing 2 mM CaCl2 (30 min, room temperature). Subsequently, cells were washed and incubated with KRB for other 30 min to allow de-esterification of Fluo-4 AM. Experiments were carried out prior to and during exposure of the cells to the Ca^2+-free solution. In the absence of Ca^2+, the intracellular Ca^2+ stores were depleted by 2,5-t-butylhydroquinone (tBHQ, 50 μM; Sigma-Aldrich, Italy), a SERCA poison, and then calcium 2 mM was re-added to the extracellular solution. Fluorescence is then monitored sequentially for a second in each well for 600 seconds with excitation at 494 nm and an emission wavelength at 516 nm on the V3 Victor plate-reader (Perkin Elmer), generating time-curves for each well. Data were analysed using Microsoft Excel and GraphPad Prism.
The percentage of SOCE inhibition for each compound was determined based on value of tBHQ-induced calcium influx into BV-2 cells (Table 2).

[3] = target: ICRAC (Homo sapiens, UniProt Q96D31); conditions: read-out: IC50 (inhibition of ICRAC); cited from earlier work
Sequence of ICRAC (Q96D31 whole entry): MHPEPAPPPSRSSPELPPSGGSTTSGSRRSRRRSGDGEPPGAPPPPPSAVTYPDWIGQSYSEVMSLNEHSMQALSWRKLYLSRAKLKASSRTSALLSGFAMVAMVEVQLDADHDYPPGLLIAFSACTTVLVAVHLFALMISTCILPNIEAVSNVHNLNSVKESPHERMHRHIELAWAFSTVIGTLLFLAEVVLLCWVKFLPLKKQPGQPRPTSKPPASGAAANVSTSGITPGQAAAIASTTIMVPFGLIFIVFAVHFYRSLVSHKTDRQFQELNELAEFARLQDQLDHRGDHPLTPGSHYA

Structure (SMILES): O=C(O)c1cnn(-c2ccc(-c3cn(-c4ccc(Cl)cc4)nn3)cc2)c1C(F)(F)F [1-(4-(1-(4-chlorophenyl)-1H-1,2,3-triazol-4-yl)phenyl)-5-(trifluoromethyl)-1H-pyrazole-4-carboxylic acid]
- % Activation (10 μM) [1]: 100.13%

Structure (SMILES): O=C(O)c1cccc(-c2cn(-c3ccc(-n4nc(C(F)(F)F)cc4C(F)(F)F)cc3)nn2)c1 [3-(1-(4-(3,5-bis(trifluoromethyl)-1H-pyrazol-1-yl)phenyl)-1H-1,2,3-triazol-4-yl)benzoic acid]
- inhibition at 10 µM [2]: 38.7%
- inhibition at 10 µM [1]: 38.3%

Structure (SMILES): O=C(O)c1cccc(-c2cn(-c3ccc(-n4ncc(C(=O)OCCN5CCOCC5)c4C(F)(F)F)cc3)nn2)c1 [3-(1-(4-(4-((2-morpholinoethoxy)carbonyl)-5-(trifluoromethyl)-1H-pyrazol-1-yl)phenyl)-1H-1,2,3-triazol-4-yl)benzoic acid]
- inhibition at 10 µM [2]: 95.7%
- inhibition at 10 µM [1]: 25.1%

Structure (SMILES): O=C(O)c1cccc(-c2cn(-c3ccc(-n4ncc(C(=O)OCc5ccccc5)c4C(F)(F)F)cc3)nn2)c1 [3-(1-(4-(4-((benzyloxy)carbonyl)-5-(trifluoromethyl)-1H-pyrazol-1-yl)phenyl)-1H-1,2,3-triazol-4-yl)benzoic acid]
- inhibition at 10 µM [2]: 87%
- inhibition at 10 µM [1]: 33.5%

Structure (SMILES): O=C(O)c1cccc(-c2cn(-c3ccc(-n4ncc(C(=O)OCc5ccncc5)c4C(F)(F)F)cc3)nn2)c1 [3-(1-(4-(4-((pyridin-4-ylmethoxy)carbonyl)-5-(trifluoromethyl)-1H-pyrazol-1-yl)phenyl)-1H-1,2,3-triazol-4-yl)benzoic acid]
- inhibition at 10 µM [2]: 54.6%
- inhibition at 10 µM [1]: 57%

Structure (SMILES): CC(C)OC(=O)c1cnn(-c2ccc(-n3cc(-c4cccc(C(=O)O)c4)nn3)cc2)c1C(F)(F)F [3-(1-(4-(4-(isopropoxycarbonyl)-5-(trifluoromethyl)-1H-pyrazol-1-yl)phenyl)-1H-1,2,3-triazol-4-yl)benzoic acid]
- inhibition at 10 µM [2]: 74.6%
- inhibition at 10 µM [1]: 93.9%

Structure (SMILES): COC(=O)c1cnn(-c2ccc(-n3cc(-c4cccc(C(=O)O)c4)nn3)cc2)c1C(F)(F)F [3-(1-(4-(4-(methoxycarbonyl)-5-(trifluoromethyl)-1H-pyrazol-1-yl)phenyl)-1H-1,2,3-triazol-4-yl)benzoic acid]
- inhibition at 10 µM [2]: 12.4%
- inhibition at 10 µM [1]: 21.8%

Structure (SMILES): O=C(O)c1cccc(-n2cc(-c3ccc(-n4nc(C(F)(F)F)cc4C(F)(F)F)cc3)nn2)c1 [3-(4-(4-(3,5-bis(trifluoromethyl)-1H-pyrazol-1-yl)phenyl)-1H-1,2,3-triazol-1-yl)benzoic acid]
- inhibition at 10 µM [2]: 30.5%
- inhibition at 10 µM [1]: 39.7%

Structure (SMILES): CCOC(=O)c1cnn(-c2ccc(-c3cn(-c4cccc(C(=O)O)c4)nn3)cc2)c1C(F)(F)F [3-(4-(4-(4-(ethoxycarbonyl)-5-(trifluoromethyl)-1H-pyrazol-1-yl)phenyl)-1H-1,2,3-triazol-1-yl)benzoic acid]
- inhibition at 10 µM [2]: 43.3%
- inhibition at 10 µM [1]: 63.6%

Structure (SMILES): O=C(O)c1ccc(-c2cn(-c3ccc(-n4nc(C(F)(F)F)cc4C(F)(F)F)cc3)nn2)cc1 [4-(1-(4-(3,5-bis(trifluoromethyl)-1H-pyrazol-1-yl)phenyl)-1H-1,2,3-triazol-4-yl)benzoic acid]
- % Activation (10 μM) [2]: 125.15%
- Regulation of SOCE (calcium response, representative traces FIG. 2A) ([2]; Fluo-4, 50 μM tBHQ, 2 mM Ca2+ re-addition): positively
- % Activation (10 μM) [1]: 136.42%

Structure (SMILES): CCOC(=O)c1cnn(-c2ccc(-n3cc(-c4ccc(C(=O)O)cc4)nn3)cc2)c1C(F)(F)F [4-(1-(4-(4-(ethoxycarbonyl)-5-(trifluoromethyl)-1H-pyrazol-1-yl)phenyl)-1H-1,2,3-triazol-4-yl)benzoic acid]
- inhibition at 10 µM [2]: 40.1%
- inhibition at 10 µM [1]: 32.3%

Structure (SMILES): CCOC(=O)c1cnn(-c2ccc(-c3cn(CCCC(=O)O)nn3)cc2)c1C(F)(F)F [4-(4-(4-(4-(ethoxycarbonyl)-5-(trifluoromethyl)-1H-pyrazol-1-yl)phenyl)-1H-1,2,3-triazol-1-yl)butanoic acid]
- inhibition at 10 µM [2]: 30.1%
- inhibition at 10 µM [1]: 19.1%

Structure (SMILES): COc1ccc(OC)c(-c2ccc(NC(=O)c3ccncc3F)cc2)c1 [Synta66]
- IC50 [3]: 300 nM

Structure (SMILES): CCOC(=O)c1cnn(-c2ccc(-c3cn(-c4ccncc4F)nn3)cc2)c1C(F)(F)F [ethyl 1-(4-(1-(3-fluoropyridin-4-yl)-1H-1,2,3-triazol-4-yl)phenyl)-5-(trifluoromethyl)-1H-pyrazole-4-carboxylate]
- inhibition at 10 µM [2]: 37.7%
- inhibition at 10 µM [1]: 32.9%

Structure (SMILES): CCOC(=O)c1cnn(-c2ccc(-c3cn(-c4ccc(Cl)cc4)nn3)cc2)c1C(F)(F)F [ethyl 1-(4-(1-(4-chlorophenyl)-1H-1,2,3-triazol-4-yl)phenyl)-5-(trifluoromethyl)-1H-pyrazole-4-carboxylate]
- % Activation (10 μM) [2]: 47.07%
- % Activation (10 μM) [1]: 122.94% and 126.78% and 97.32%

Structure (SMILES): CCOC(=O)c1cnn(-c2ccc(-n3cc(-c4ccc(O)c(OC)c4)nn3)cc2)c1C(F)(F)F [ethyl 1-(4-(4-(4-hydroxy-3-methoxyphenyl)-1H-1,2,3-triazol-1-yl)phenyl)-5-(trifluoromethyl)-1H-pyrazole-4-carboxylate]
- inhibition at 10 µM [2]: 35%
- inhibition at 10 µM [1]: 78.4%
